Key:
[1] = test system: MV4-11 cells; experiment: Flow cytometric cell cycle analysis, MV4-11; format: cell-based, Human; conditions: increasing doses, 24 h
Method: FLT3 inhibition causes G1-cell cycle arrest in FLT3-dependent cell lines such as MV4-11; we, therefore, performed flow cytometric analysis to evaluate cell cycle changes in MV4-11 and K562 cell lines treated with 200 nM compounds for 24 h. […] Specifically, 18 compounds arrested >85% of cells in the G1 phase, which is >30% cells in the G1 phase of the cell cycle than in control cells (Figure 4A).
(§1) Finally, we performed flow cytometric analysis with different concentrations of 15a in MV4-11 and MOLM13 (another FLT-ITD positive cell line) and K562 cell lines treated for 24 h (Figure 5).
(§2) Asynchronously growing cells were seeded into a 96-well plate and, after a preincubation period, treated with tested compounds for 24 h. The treated cells were stained directly (or after trypsinization for the adherent cells) with the 5× staining solution (17 mM trisodium citrate dihydrate, 0.5% IGEPAL CA-630, 7.5 mM spermine tetrahydrochloride, and 2.5 mM Tris; pH 7.6 containing […] propidium iodide). After the staining, DNA content was analyzed using flow cytometry using a 488 nm laser (BD FACS Verse with software BD FACSuite^TM, version 1.0.6). Cell cycle distribution was analyzed using ModFit LT (Verity Software House, version 5.0). Palbociclib, trilaciclib, and quizartinib were purchased from MedChemExpress, Monmouth Junction, NJ, USA.

[2] = biological target: T1, Lyn (Homo sapiens, UniProt P07948); experiment: Kinase selectivity panel at 1 µM (Eurofins), Lyn; format: biochemical; conditions: read-out: residual enzyme activity Lyn
T1 construct: purchased Eurofins Discovery (France)
Method: (§3) Three representative compounds (14d, 14e, and 15a) were profiled in a 1 µM concentration against 30 kinases that were selected as known off-targets of approved CDK4/6 inhibitors. […] Additional sensitive kinases include STK16, EphA1, MEKK2, SRC, and MER (≤10% of residual enzyme activities), which are not targets of the structurally similar CDK4/6 inhibitor, trilaciclib. We also screened compound 15a, an analogue of 14d, bearing isopropyl at position 7 of the purine instead of the methyl group. This change rapidly diminished the potency against CDK4 (dropped to 90% of residual enzyme activity), but the preference for FLT3 remained (1st rank) (Figure 2).
(§4) CDK/cyclin complexes and FLT3 kinases were assayed as previously described. Protein kinase selectivity was evaluated at a single concentration (1 µM) by screening against 30 enzymes at Eurofins Discovery (France).

[3] = biological target: T2, Abl (Homo sapiens, UniProt P00519); experiment: Kinase selectivity panel at 1 µM (Eurofins), Abl; format: biochemical; conditions: read-out: residual enzyme activity Abl
T2 construct: purchased Eurofins Discovery (France)
Method: as §3, §4

[4] = test system: MOLM13 cells; experiment: Flow cytometric cell cycle analysis, MOLM13; format: cell-based; conditions: increasing doses, 24 h
Method: as §1
as §2, with “5.0).” for “5.0). Palbociclib, trilaciclib, and quizartinib were purchased from MedChemExpress, Monmouth Junction, NJ, USA.”

T1 sequence (P07948 whole entry): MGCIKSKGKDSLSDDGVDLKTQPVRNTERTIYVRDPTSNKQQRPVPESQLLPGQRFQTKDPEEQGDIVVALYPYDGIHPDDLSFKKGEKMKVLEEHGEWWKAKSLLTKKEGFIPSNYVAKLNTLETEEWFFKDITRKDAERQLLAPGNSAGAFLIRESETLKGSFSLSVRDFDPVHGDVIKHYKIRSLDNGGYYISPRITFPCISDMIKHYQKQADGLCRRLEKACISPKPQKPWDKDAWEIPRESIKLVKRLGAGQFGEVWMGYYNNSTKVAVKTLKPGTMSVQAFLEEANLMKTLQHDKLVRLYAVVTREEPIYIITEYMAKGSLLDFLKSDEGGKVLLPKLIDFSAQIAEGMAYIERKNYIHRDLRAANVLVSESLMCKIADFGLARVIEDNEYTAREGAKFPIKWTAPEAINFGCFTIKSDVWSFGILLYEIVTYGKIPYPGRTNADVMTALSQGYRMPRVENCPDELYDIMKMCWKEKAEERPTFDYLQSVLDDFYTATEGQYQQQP
T2 sequence (P00519 whole entry): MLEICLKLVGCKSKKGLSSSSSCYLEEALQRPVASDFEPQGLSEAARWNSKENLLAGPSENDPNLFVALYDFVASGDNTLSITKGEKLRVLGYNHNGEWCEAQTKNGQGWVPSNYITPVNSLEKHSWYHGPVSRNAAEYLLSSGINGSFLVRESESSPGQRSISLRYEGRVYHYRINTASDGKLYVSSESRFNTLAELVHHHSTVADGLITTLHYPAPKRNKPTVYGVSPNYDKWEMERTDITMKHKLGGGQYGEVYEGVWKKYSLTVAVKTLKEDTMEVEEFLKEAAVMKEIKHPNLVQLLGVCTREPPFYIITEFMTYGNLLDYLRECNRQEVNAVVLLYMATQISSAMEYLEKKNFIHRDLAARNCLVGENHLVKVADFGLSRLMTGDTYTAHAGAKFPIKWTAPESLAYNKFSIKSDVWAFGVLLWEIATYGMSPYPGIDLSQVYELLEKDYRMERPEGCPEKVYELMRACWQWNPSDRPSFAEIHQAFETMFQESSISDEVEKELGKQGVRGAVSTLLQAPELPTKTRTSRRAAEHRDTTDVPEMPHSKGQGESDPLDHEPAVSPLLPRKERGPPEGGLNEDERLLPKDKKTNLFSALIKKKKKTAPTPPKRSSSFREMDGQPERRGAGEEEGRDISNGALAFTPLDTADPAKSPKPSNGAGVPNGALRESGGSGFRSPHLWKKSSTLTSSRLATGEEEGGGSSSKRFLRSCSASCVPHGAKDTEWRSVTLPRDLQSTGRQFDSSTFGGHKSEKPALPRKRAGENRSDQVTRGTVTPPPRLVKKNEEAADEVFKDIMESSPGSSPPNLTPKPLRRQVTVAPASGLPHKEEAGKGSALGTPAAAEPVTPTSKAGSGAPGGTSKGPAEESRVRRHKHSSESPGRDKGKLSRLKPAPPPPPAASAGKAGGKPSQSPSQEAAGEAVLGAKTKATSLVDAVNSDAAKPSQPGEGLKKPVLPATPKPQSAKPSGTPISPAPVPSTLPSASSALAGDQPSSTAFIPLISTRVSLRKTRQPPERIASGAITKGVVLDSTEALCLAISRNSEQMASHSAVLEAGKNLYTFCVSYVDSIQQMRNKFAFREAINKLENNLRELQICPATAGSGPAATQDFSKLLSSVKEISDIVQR

Question: What does the source list for `CC(C)n1c(=O)n(C2CCCC2)c2nc(Nc3ccc(N4CCNCC4)cc3)ncc21` [15a, 9-cyclopentyl-7-isopropyl-2-((4-(piperazin-1-yl)phenyl)amino)-7,9-dihydro-8H-purin-8-one]?
Answer: cells in the G1 phase, MV4-11 [1]: up to 90%; remaining activity at 1 µM [2]: ≤ 10%; remaining activity at 1 µM [3]: ≤ 10%; cells in the G1 phase, MOLM13 [4]: up to 90%
